This note sets out measurements from patent publication US5254584A, “N-acetonylbenzamides and their use as fungicides” (Rohm and Haas Company, priority 1992, dated 1993).

One data set concerns Plasmopara viticola. In words: Downy Mildew of Grapes--Curative (GDC). The settings on record: in vivo.
Data set [1] deals with Botrytis cinerea. In words: microbe, parasite or virus in culture. The settings on record: 72 h, 3 days at room temperature, read-out: BOC percent inhibition of fungal growth. It is filed as cell-based.
The next data set has as its system Piricularia oryzae. It is filed as in vivo. The settings on record: 300 g/Ha; seven to eight days after inoculation; Nato rice.
In a further data set the test system is Pythium ultimum. Kind of data set: Fungitoxicity assay against Pythium ultimum (in vitro, mycelial dry weight). The format is cell-based. The settings on record: Globisporangium ultimum, 48 hours at 25° C., read-out: Pythium EC50. Here is the method: The compounds of Examples 1-20 were tested in vitro for fungicidal activity and phytotoxicity. A. The compounds were tested in vitro for fungicidal activity against Pythium ultimum, Botrytis cinerea and Venturia inaequalis. Fungitoxicity assay against Pythium ultimum: A dilution series of test compound was prepared in dimethylsulfoxide, and 0.1 milliliter (ml) of each dilution was added to 19.9 ml of a liquid asparagine-sucrose broth ([…]. and Katznelson, K., 1971, Can. J. […] Each plate was inoculated with a mycelial plug, 7 millimeters (mm) in diameter, taken from the growing edge of a culture of Pythium ultimum grown on potato dextrose agar. Two replicate plates were used for each treatment. The increase in mycelial dry weight was determined after growth for 48 hours at 25° C. with shaking on a gyrotary shaker at 60 revolutions per minute (rpm). EC50 values were calculated from dose response curves. As used herein, the terminology "EC50" means the concentration of test compound required to inhibit growth by 50% as compared to a control lacking the test compound. Results of the testing for fungicidal activity against the above named fungi are set forth below in Table 3 as Pythium EC50 (ppm), Botrytis EC50 (ppm) and Venturia MIC (ppm), respectively.

The nature of data set [2]: Tobacco root assay for phytotoxicity (in vitro root elongation). The settings on record: 7 days, 27° C., read-out: Tob. EC50. Here is the method:
The compounds of Examples 1-20 were tested in vitro for fungicidal activity and phytotoxicity.
B. The compounds were tested in vitro for phytotoxicity in a tobacco root elongation assay.
Tobacco root assay for Phytotoxicity:
A dilution series of test compound was prepared in dimethylsulfoxide and 20 ul of each dilution was added to 20 ml of molten nutrient medium, consisting of Murashige and Skoog salt base, 2% sucrose and 1% agar, to give the desired concentrations of test compound. The mixtures were poured immediately into 9 cm diameter petri dishes. Surface-sterilized tobacco seeds were placed on each plate (20 seeds per plate) and the plates incubated in a vertical position in a 27° C. incubator with a 16 hour photoperiod. After 7 days the mean root lengths were calculated, and EC50 values determined from dose response curves.
Results of the tobacco root assay are set forth below in Table 3 as Tob. EC50 (ppm).

Data set [3] relates to Erysiphe graminis (f. sp. tritici). Kind of data set: Wheat Powdery Mildew (WPM). It is filed as in vivo. The settings on record: 300 g/Ha; 8 to 10 days after inoculation; Pennol wheat. Here is the method:
Wheat Powdery Mildew (WPM) Erysiphe graminis (f. sp. tritici) was cultured on Pennol wheat seedlings in a controlled temperature room at 65° F. to 75° F. Mildew spores were shaken from the culture plants onto Pennol wheat seedlings which had been sprayed previously with the fungicide compound. The inoculated seedlings were kept in a controlled temperature room at 65° F. to 75° F. and subirrigated. […] The fungicidal activity of compound of Example 12 against the above discussed phytopathogenic fungi is set forth in Table 5 as percent disease control at an application rate of 300 g/Ha.

The next data set concerns Cercospora arachidicola. Kind of data set: Peanut Cercospora (PC). The note with it: in vivo.
Another data set has as its system Rhizoctonia solani. In words: microbe, parasite or virus in culture. It is filed as cell-based. The note with it: 72 h, 3 days at room temperature, read-out: RHI percent inhibition of fungal growth.
The test system of the next data set is cucumber plants. In words: In vivo phytotoxic activity, foliar spray, cucumber. More on the design: key: +: indicating presence of a plant growth regulatory effect as compared to a control to which a solvent mixture (acetone/water/methanol) lacking the test compound was applied; 0: A zero indicates no apparent effect. The note with it: foliar spray 2200 g/Ha, seven days after application. How it is done:
(§1) The compounds of Examples 1 and 12 were tested in vivo for phytotoxic activity by applying the compounds to the foliage of cucumber, tomato, bean, lettuce and strawberry plants as a spray at a rate of 2200 g/Ha. The plants were evaluated seven days after spray application of the compounds.
(§2) Phototoxicity scores are set forth below in Table 6. The phytotoxicity scores use a symbol, "+", indicating presence of a plant growth regulatory effect as compared to a control to which a solvent mixture (acetone/water/methanol) lacking the test compound was applied. A zero indicates no apparent effect. Each score is a composite representing the mode value for three replicate plants.

For another data set, the system named is Phytophthora infestans. It is filed as in vivo. The settings on record: 300 g/Ha; 6 days after inoculation; tomato.
For a further data set, the system named is lettuce plants. In words: In vivo phytotoxic activity, foliar spray, lettuce. On the set-up: key: +: indicating presence of a plant growth regulatory effect as compared to a control to which a solvent mixture (acetone/water/methanol) lacking the test compound was applied; 0: A zero indicates no apparent effect. The settings on record: foliar spray 2200 g/Ha, seven days after application. Here is the method: as §1, §2

Data set [4] deals with Pseudocercosporella herpotrichoides. Kind of data set: microbe, parasite or virus in culture. The format is cell-based. The settings on record: Oculimacula yallundae, 72 h, 3 days at room temperature, read-out: PSH percent inhibition of fungal growth.
The subject of data set [5] is Botrytis cinerea. Kind of data set: Fungitoxicity assay against Botrytis cinerea (in vitro, colony diameter). The note with it: 48 hours at 25° C., read-out: Botrytis EC50. It is filed as cell-based. Here is the method:
The compounds of Examples 1-20 were tested in vitro for fungicidal activity and phytotoxicity. A. The compounds were tested in vitro for fungicidal activity against Pythium ultimum, Botrytis cinerea and Venturia inaequalis. Fungitoxicity assay against Botrytis cinerea: […] The mixtures were poured immediately into 9 centimeter (cm) diameter petri dishes. Two replicate plates were used for each treatment. Each plate was inoculated with a 7 mm diameter plug taken from the growing edge of a 5 day old culture of B. cinerea on potato dextrose agar. […] Results of the testing for fungicidal activity against the above named fungi are set forth below in Table 3 as Pythium EC50 (ppm), Botrytis EC50 (ppm) and Venturia MIC (ppm), respectively.

Data set [6] concerns Colletotrichum lagenarium. Kind of data set: microbe, parasite or virus in culture. The format is cell-based. The settings on record: Colletotrichum orbiculare, 72 h, 3 days at room temperature, read-out: COL percent inhibition of fungal growth.
The subject of the next data set is Fusarium roseum. In words: microbe, parasite or virus in culture. It is filed as cell-based. The settings on record: Fusarium sambucinum, 72 h, read-out: FUS percent inhibition of fungal growth.

A word on the inhibition: it is the change of the read-out against control, counted positive when it falls.

In brackets after ≈: the same amount, converted by molar mass.

Consider `CCC(C)(NC(=O)c1cc(C)cc(C=NOC)c1)C(=O)CCl` (stereo not drawn) [Example 12, N-[3'-(1'-chloro-3'-methyl-2'-oxopentan)]-3-methoxyiminomethyl-5-methylbenzamide], for which, in the data set with Plasmopara viticola, the “GDC percent disease control” value is on record as 50%. In addition, the inhibition at 25 ppm in the data set with Botrytis cinerea [1] is 100%; in the data set with Rhizoctonia solani, 0%; in [4], 100%; in [6], 100%; in the data set on Fusarium roseum, 0%. Further, the “RB percent disease control” value in the data set with Piricularia oryzae was 75%. Besides, the IC50 in the data set with Pythium ultimum amounted to 0.16 µg/mL (≈ 0.493 µM); in the data set on Botrytis cinerea [5], 0.28 µg/mL (≈ 0.862 µM). In [2], the IC50 at 168 h came out at 0.38 µg/mL (≈ 1.17 µM). The “WPM percent disease control” value in data set [3] is 75%. The “PC percent disease control” value in the data set with Cercospora arachidicola is reported as 80%. Besides, the “phytotoxicity score, Cucumber” value with cucumber plants is 0. Moreover, the “TLB percent disease control” value with Phytophthora infestans is given as 100%. For the same molecule, the “phytotoxicity score, Lettuce” value in the data set with lettuce plants stood at 0.
